Where “and” joins values, the source holds several entries; their conditions need not be identical. Identical values can stand only once.
Columns and labels:
Type in all cases: physicochemical
[1] = Desorption of methylene blue from impregnated catheter pieces in 0.9% saline (HPLC)
Procedure: In another form of the present application, one inch polycarbonate catheter pieces including a surface area of about 4.64 cm^2 were impregnated with methylene blue. A solution of 0.24 M sodium citrate buffer pH 4.5 was prepared with 100 mg % methylene blue activated by 2% L-ascorbic acid immediately beforehand. Catheter pieces were placed in flasks containing the solution and the flasks were placed on a shaker at 220 rpm and 27° C. for 3 hours.
Desorption analysis of the methylene blue impregnated catheter pieces was performed in a 0.9% solution of saline. The total amount of methylene blue released from the catheter pieces was calculated using HPLC analysis performed with a Waters Alliance 2690 including a 996 Photodiode Array Detector according to conditions in Example 4. The results of the HPLC analysis corresponding to the desorption of methylene blue from the methylene blue impregnated polymeric material are set forth in the graph of FIG. 10.
One inch polycarbonate catheter pieces including a surface area of about 4.64 cm^2 were impregnated with methyl paraben and propyl paraben. A solution of 100% 1,2-propanediol was prepared with 9% methyl paraben and 2% propyl paraben. Pairs of the one inch catheter pieces were placed into three 25 ml flasks including 10 ml of parabens solution. The flasks were placed on a shaker at 220 rpm and 27° C. for two, four, or nine hours. At the end of each time period, the catheter pieces were removed, rinsed with distilled water, and dried.
The catheter pieces were then impregnated with methylene blue. A solution of 0.24 M sodium citrate buffer with a pH of 4.5 was prepared with 100 mg % methylene blue activated by 2% L-ascorbic acid immediately beforehand. Catheter pieces were placed in flasks containing the solution and the flasks were placed on a shaker at 220 rpm and 27° C. for 3 hours. Desorption analysis of the parabens and methylene blue impregnated catheter pieces was performed in a 0.9% solution of saline according to the method described earlier.

[2] = Total methylene blue loaded onto and released from polycarbonate discs and catheters, desorbed in MeOH (0.1% TFA), UV 662 nm
Procedure: An experiment was performed in order to determine the total amount of methylene blue that was loaded onto a polycarbonate disc in comparison to a polycarbonate catheter. The discs were 1.27 cm or 0.5 inches in diameter and included a surface area of 2.53 cm^2 and a thickness of 0.60 mm. The catheter pieces were 1″ long and included a surface area of 4.64 cm^2 and a thickness of 0.51 mm. A 160 ml solution of 0.24 M sodium citrate was prepared into which 0.1% or […] of methylene blue was added. Then, 2%, or 3.2 g of ascorbic acid, was added to the solution and mixed for 1-2 minutes and 10 ml of the solution was placed into 25 ml flasks. The discs and catheter pieces were rinsed and placed into the 25 ml flasks of solution and placed on a shaker at 220 rpm at 37° C. for three hours. The catheter pieces and discs were removed, rinsed with distilled water, and dried. The catheter pieces and discs were desorbed in 20 ml of MeOH (w/0.1% TFA) and placed on the shaker until the membranes appeared whitish in color. Appropriate dilutions were made and the UV absorbance was measured at 662 nm. The methylene blue concentration was calculated based on a standard curve generated in a similar manner. The results are set forth below in Table 4 and 5.

[3] = Perfusion of parabens and methylene blue through polycarbonate membrane in perfusion chamber (HPLC of lower chamber); conditions: for perfusion of methylene blue through membrane without activation: only 1,2-propanediol solution, absence of Citrate and activation by AA, after 4.5 days (Treatments 1 and 2)
Procedure: An experiment was performed to determine a method for perfusing methylene blue, methyl paraben, and propyl paraben through a polycarbonate membrane with causing only minimal changes to the strength and elasticity of the membrane. In FIG. 12, there is illustrated a perfusion chamber system 50 used during the experiment. System 50 includes an upper chamber 51 and a lower chamber 52 separated by a polycarbonate membrane 53 having a thickness of 0.60 mm. The upper and lower chambers 51, 52 are generally structured to hold 10.5 cm^3 or 10.5 ml of fluid. The upper chamber 51 was connected to a peristaltic pump (not shown) and the lower chamber 52 was filled with distilled water. First and second solutions, respectively including the parabens and the methylene blue, were prepared in accordance with the method set forth in EXAMPLE 6 above. As best seen in Tables 6 and 7 below, the solutions were connected to the pump and passed through the first chamber 51 at a constant rate at 37° C. over various lengths of time.
Table 6 includes data obtained from HPLC analysis comparing the methyl paraben, propyl paraben, and methylene blue concentrations in the lower chamber 52. The parameters for the methyl and propyl paraben and methylene blue treatments are indicated in the left hand columns.

[4] = Leaching of methylene blue from treated catheter into normal saline replaced monthly; conditions: catheter treated with only methylene blue
Text: When the saline is replaced with fresh saline, exactly the same intense blue color developed in the fresh saline solution during the second month. This process of replacing the saline solution can be continued, that is, replacing the saline solution with fresh solution monthly, for at least nine months. The color resulting during the sixth month in the fresh saline solution is a light blue. If the process is continued for an additional 3 months or up to a total of 9 months, the resulting fresh saline solution is light blue in color, but the release of the dye continues.

[5] = No Parabens, MB treatment 3 hrs 0.24 M Citrate buffer, 4.5 pH
[6] = paraben treatment 2 hrs- 100% PG, 9% MP, 2% PP, MB treatment 3 hrs
[7] = paraben treatment 4 hrs- 100% PG, 9% MP, 2% PP, MB treatment 3 hrs
[8] = paraben treatment 9 hrs- 100% PG, 9% MP, 2% PP, MB treatment 3 hrs
[9] = flat polycarbonate disc (discs 1-4), NO Parabens, MB treatment 3 hrs 0.24M Citrate Buffer, 4.5 pH, 100 mg % MB, 2% AA

- period of significant release of methylene blue ([1]; catheters preincubated with parabens, 0.9% saline): 10 days
- methylene blue release during the last 20 days of the experiment ([1]; catheters treated only with methylene blue, 0.9% saline (FIG. 10)): negligible release
- factor by which flat discs exceed catheters in total sorption and desorption of methylene blue per cm^2 ([2]; Tables 4 and 5, no parabens): ~6.8
- Average ug/cm^2 MB released ([2]; average of flat discs 1-4, NO Parabens, MB treatment 3 hrs): 1942.8 ug/cm^2
- % MB released from catheter in saline desorption/total released in MeOH (0.1% TFA) [2, 5]: 58.8%
- mg released based on 1″ of catheter [2, 5]: 1.32 mg
- mg released per cm^2 of catheter [2, 5]: 0.284 mg per cm^2
- ug released per cm^2 of catheter [2, 5]: 284.5 ug per cm^2
- % MB released from catheter in saline desorption/total released in MeOH (0.1% TFA) [2, 6]: 73.2%
- mg released based on 1″ of catheter [2, 6]: 1.65 mg
- mg released per cm^2 of catheter [2, 6]: 0.356 mg per cm^2
- ug released per cm^2 of catheter [2, 6]: 356.3 ug per cm^2
- % MB released from catheter in saline desorption/total released in MeOH (0.1% TFA) [2, 7]: 65.5%
- mg released based on 1″ of catheter [2, 7]: 1.71 mg
- mg released per cm^2 of catheter [2, 7]: 0.368 mg per cm^2
- ug released per cm^2 of catheter [2, 7]: 368.5 ug per cm^2
- % MB released from catheter in saline desorption/total released in MeOH (0.1% TFA) [2, 8]: 76.4%
- mg released based on 1″ of catheter [2, 8]: 1.78 mg
- mg released per cm^2 of catheter [2, 8]: 0.384 mg per cm^2
- ug released per cm^2 of catheter [2, 8]: 383.6 ug per cm^2
- time to perfuse through the membrane ([3]; activated MB solution (citrate, AA), 0.60 mm polycarbonate membrane): ~10 days
- concentration of methylene blue in lower chamber, in words ([3]; after 10 days of flow by activated solution): not significant
- Total mg MB in 10.5 mL lower chamber ([3]; lower chamber, parabens ~9 hrs at 37 C., then activated MB sol'n ~10 days): 0.0105 mg
- MB conc ([3]; lower chamber, parabens ~9 hrs at 37 C., then activated MB sol'n ~10 days, changed every 1 day): 0.001 mg/mL
- perfusion of methylene blue through membrane without activation ([3]; listed as Methylene blue): would not perfuse
- perfusion of methylene blue through membrane without activation ([3]; listed as methylene blue): minimal
- duration of release of the dye from treated catheter [4]: ≥ 9 months
Structure (SMILES): CN(C)c1ccc2nc3ccc(=[N+](C)C)cc-3sc2c1 [MB, methylene blue]
- methylene blue release at the conclusion of the 81st day ([1]; catheters pretreated with parabens, 0.9% saline (FIG. 11)): a small amount of methylene blue still being released
- Amt MB (mg) released per square cm (mg/2.53 cm^2) on disc [2, 9]: 1.95 mg per square cm and 1.92 mg per square cm and 1.93 mg per square cm and 1.96 mg per square cm
- Average amount (mg) released per disc [2, 9]: 4.94 mg and 4.87 mg and 4.88 mg and 4.97 mg
- ug/cm^2 MB released, flat disc [2, 9]: 1954.1 ug/cm^2 and 1923.6 ug/cm^2 and 1929.0 ug/cm^2 and 1964.3 ug/cm^2
